Columns and labels:
HCT116 tumors = assay: KULA2 in mice harboring HCT116 tumors (MPC null); type: in vivo; settings: comparator results named beside KULA2 in HCT116; dose and source not given
Description: CT26 is the MPC+ group. MPC levels were verified via western blotting or otherwise known (see, e.g., Schell, et al., Molecular Cell, 56:400-413 (2014)).
In both models HCT116 and CT26 the mice (between 8-10 per arm) were dosed with KULA2 via i.p. injection and vehicle, HCT116 tumors at a dose of 20 mg/kg, and CT26 tumors at a dose of 18 mg/kg. Dosing schedule in both cases was 5 days on, 2 days off for the duration of the study.
Experiments were designed to determine if MPC expression correlates with the efficacy of PDK inhibitor. A PDK inhibitor, KULA2, was administered to mice harboring HCT116 tumors (at a dose of 20 mg/kg) or CT26 tumors (at a dose of 18 mg/kg).

A549 cells = assay: Extracellular lactate after PDK inhibitor, with or without UK5099 pre-treatment; type: cell-based; settings: 16 hrs UK5099 pre-treatment, then DCA 50 mM or KULA2 500 μM for 6 hrs
Description: A549 cells were pre-treated for 16 hrs with the MPC inhibitor UK5099 and then subsequently treated with the test articles for 6 hrs; extracellular lactate was then measured. Dichloroacetate (DCA) and KULA2, a dichloroacetate (DCA) analogue targeted to the mitochondria with a lipophilic triphenylphosphonium (TPP) cation moiety, were used ((Pathak R K et al., ACS Chem. Biol., 9 (5) 1178-1187 (2014), (Pathak R K et al., ACS Chem. Biol., 9 (5) 1178-1187 (2014), and WO/2015/002996). DCA is dosed at 50 mM and KULA2 is dosed at 500 μM.

pyruvate dehydrogenase = settings: highly purified pyruvate dehydrogenase, cited from earlier work

| Compound | tumor inhibition (comparators) (HCT116 tumors) [%] | other results |
| --- | --- | --- |
| VEGF-TRAP: comparator named for tumor inhibition | 22 |  |
| N#C/C(=C\c1cn(-c2ccccc2)c2ccccc12)C(=O)O [UK5099] |  | effect of MPC inhibition on lactate reduction by PDK inhibitors (A549 cells): lowers the lactate reduction normally seen with PDK inhibitors |
| Cc1ncc(C[n+]2csc(CCO)c2C)c(=O)[nH]1 [oxythiamine, Oxythiamine] |  | Ki (pyruvate dehydrogenase; oxythiamine diphosphate ester, read-out: KI against the normal cofactor TPP): 70 nM |
| N.N.[Cl][Pt][Cl] [cisplatin] | 22 |  |
| Cc1ncc(C[n+]2csc(CCO[P@](=O)(O)OP(=O)(O)O)c2C)c(N)n1 [TPP, thiamine pyrophosphate] |  | Km (pyruvate dehydrogenase; read-out: Km of cofactor): 0.11 µM |
| CNC(=O)c1cc(Oc2ccc(NC(=O)Nc3ccc(Cl)c(C(F)(F)F)c3)cc2)ccn1 [sorafenib] | 17 |  |

Reference: US20170349949A1, “METHODS OF SELECTING SUBJECTS FOR TREATMENT WITH METABOLIC MODULATORS” (Partikula LLC, priority 2016, published 2017)
